Assay results taken from PubChem BioAssay (NCI).
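96-well plates; 48 h exposure; 5 concentrations. Endpoints by linear interpolation between flanking doses. Not reached: highest tested concentration assigned. At the TGI there is no net growth.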

Assays:
Assay in all cases: inhibition of tumour cell growth, NCI panel, 48 h
HCT-15 colon = tested on: HCT-15 colon
M14 melanoma = tested on: M14 melanoma
OVCAR-4 ovarian = tested on: OVCAR-4 ovarian
MALME-3M melanoma = tested on: MALME-3M melanoma
RPMI-8226 leukemia = tested on: RPMI-8226 leukemia
SK-MEL-2 melanoma = tested on: SK-MEL-2 melanoma
SNB-75 CNS = tested on: SNB-75 CNS
SN12C renal = tested on: SN12C renal
K-562 leukemia = tested on: K-562 leukemia
IGROV1 ovarian = tested on: IGROV1 ovarian
COLO 205 colon = tested on: COLO 205 colon
T-47D breast = tested on: T-47D breast
BT-549 breast = tested on: BT-549 breast
NCI/ADR-RES ovarian = tested on: NCI/ADR-RES ovarian

| Structure (SMILES) | TGI (HCT-15 colon) [µM] | TGI (M14 melanoma) [µM] | TGI (OVCAR-4 ovarian) [µM] | TGI (MALME-3M melanoma) [µM] | TGI (RPMI-8226 leukemia) [µM] | TGI (SK-MEL-2 melanoma) [µM] | TGI (SNB-75 CNS) [µM] | TGI (SN12C renal) [µM] | TGI (K-562 leukemia) [µM] | TGI (IGROV1 ovarian) [µM] | TGI (COLO 205 colon) [µM] | TGI (T-47D breast) [µM] | TGI (BT-549 breast) [µM] | TGI (NCI/ADR-RES ovarian) [µM] |
| --- | --- | --- | --- | --- | --- | --- | --- | --- | --- | --- | --- | --- | --- | --- |
| CCOC(=O)C1=C(C)N(NC(=O)OC)C2(N)N(NC(=O)OC)C(C)=C(C(=O)OCC)C12C#N (stereo not drawn) | > 100 | > 100 | > 100 | > 100 | > 100 | > 100 | > 100 | > 100 | > 100 | > 100 | – | – | – | – |
| Cc1nnc2n1N=C(c1ccc(-c3ccc([N+](=O)[O-])cc3)o1)CS2 | > 100 | > 100 | > 100 | > 100 | > 100 | > 100 | > 100 | > 100 | > 100 | > 100 | > 100 | – | – | – |
| COc1ccc2oc(=O)c(-c3csc(-c4ccccc4)n3)cc2c1 | > 100 | > 100 | 97.9 | – | > 100 | > 100 | 71.7 | – | > 100 | > 100 | > 100 | > 100 | 50.2 | – |
| C=CC[C@@]12CCC(=O)C=C1CCCC2=O | > 100 | > 100 | > 100 | > 100 | > 100 | > 100 | – | > 100 | > 100 | > 100 | > 100 | > 100 | – | > 100 |
| C/C(CC(=O)Nc1ccccc1)=N\NC(N)=S | – | > 100 | – | > 100 | > 100 | > 100 | > 100 | – | > 100 | > 100 | > 100 | – | – | – |
| C/C(=C(/C)c1cc[n+](C)cc1)c1cc[n+](C)cc1 | > 75 | > 75 | > 75 | > 75 | > 75 | > 75 | > 75 | > 75 | > 75 | > 75 | > 75 | – | – | – |
| O=[N+]([O-])c1cc2ccc1OCc1cccc(n1)COc1ccc(cc1[N+](=O)[O-])C=NCCCCCCCCN=C2 | > 100 | > 100 | > 100 | > 100 | > 100 | > 100 | > 100 | > 100 | > 100 | > 100 | > 100 | – | > 100 | > 100 |
| CC(C)(C)OC(=O)NC(Cc1ccc(OCc2ccccc2)cn1)C(=O)O (stereo not drawn) | > 100 | – | > 100 | > 100 | > 100 | – | – | > 100 | > 100 | > 100 | > 100 | – | > 100 | > 100 |
| [O-]/[N+](=N/c1ncc(-c2ccccc2)cn1)c1ncc(-c2ccccc2)cn1 | > 100 | > 100 | > 100 | > 100 | > 100 | > 100 | > 100 | > 100 | > 100 | > 100 | > 100 | > 100 | – | > 100 |
| C=C(C)CCN(C(=O)OC(C)(C)C)c1cc(C(C)C)co1 | > 100 | > 100 | > 100 | – | 57.3 | > 100 | – | > 100 | > 100 | > 100 | > 100 | > 100 | > 100 | > 100 |
| CC(=O)c1c2c(cc3c1CC1(C3)Cc3cc4c(c(C(C)=O)c3C1)CCCC4)CCCC2 | > 100 | > 100 | > 100 | > 100 | > 100 | 83.2 | – | > 100 | > 100 | > 100 | > 100 | > 100 | – | > 100 |
| O=C1O/C(=C(/Cl)c2c3ccccc3cc3ccccc23)c2ccccc21 | > 100 | 53.8 | 90.3 | > 100 | 66.4 | 51.2 | 36.6 | > 100 | > 100 | 71.2 | 49.2 | > 100 | – | > 100 |
| COC(=O)/C=C/c1ccc2c(c1)[C@H](C(=O)OC)[C@@H](c1ccc(O)cc1)O2 | 47.3 | 42.7 | > 100 | 80.6 | – | 31.2 | – | > 100 | > 100 | > 100 | 89.4 | > 100 | 46.4 | > 100 |
| CC1(C)N([O-])[N+](=O)C1(Br)c1ccccc1 (stereo not drawn) | > 100 | > 100 | > 100 | > 100 | > 100 | > 100 | > 100 | > 100 | > 100 | > 100 | > 100 | > 100 | – | > 100 |
| CC(=O)c1sc2n(C)c(=O)c3ccccc3[n+]2c1C | > 100 | > 100 | > 100 | – | > 100 | > 100 | – | > 100 | > 100 | > 100 | > 100 | > 100 | > 100 | > 100 |
| Cc1ccc2nc(-c3ccc(-c4nc5ccc(C)cc5o4)c(O)c3)oc2c1 | > 100 | > 100 | – | – | > 100 | > 100 | > 100 | > 100 | > 100 | – | > 100 | > 100 | – | > 100 |
| CN1C(=O)C(C#N)C2C[C@@]1(C)Oc1ccccc12 (stereo partly drawn) | > 100 | > 100 | > 100 | – | > 100 | > 100 | > 100 | – | > 100 | > 100 | > 100 | – | > 100 | > 100 |
| COCCNC1CCC(=O)c2[nH]c3ccccc3c21 (stereo not drawn) | > 100 | > 100 | > 100 | > 100 | > 100 | > 100 | > 100 | > 100 | > 100 | > 100 | > 100 | – | > 100 | > 100 |
| CCOC(=O)C1=C(c2ccccc2)NC(c2ccccc2)=C(C(=O)OCC)c2c1c(=O)cc[nH]c2=O | > 100 | > 100 | > 100 | > 100 | > 100 | > 100 | > 100 | > 100 | > 100 | > 100 | > 100 | – | – | – |
